# Laboratory results from article PMC6055169 (Proceedings of the National Academy of Sciences of the …, 2018).
# Like-named read-outs stand apart in the source and are kept apart here.
# Tests used:
# Format in all cases: cell-based
# TRPV4 = TRPV4 (Rattus norvegicus, UniProt Q9ERZ8); assay: Fluo-4 calcium imaging in transfected HEK293A cells, agonist at […]
# TRPA1 [1] = biological target: T1, TRPA1 (Mus musculus, UniProt Q8BLA8); assay: as above
# TRPA1 [2] = biological target: T1, TRPA1; conditions: HEK293-A, read-out: % reduction at 50 μM
# TRPV1 [3] = biological target: T2, TRPV1 (Mus musculus, UniProt Q704Y3)
# T2 sequence (Q704Y3 whole entry): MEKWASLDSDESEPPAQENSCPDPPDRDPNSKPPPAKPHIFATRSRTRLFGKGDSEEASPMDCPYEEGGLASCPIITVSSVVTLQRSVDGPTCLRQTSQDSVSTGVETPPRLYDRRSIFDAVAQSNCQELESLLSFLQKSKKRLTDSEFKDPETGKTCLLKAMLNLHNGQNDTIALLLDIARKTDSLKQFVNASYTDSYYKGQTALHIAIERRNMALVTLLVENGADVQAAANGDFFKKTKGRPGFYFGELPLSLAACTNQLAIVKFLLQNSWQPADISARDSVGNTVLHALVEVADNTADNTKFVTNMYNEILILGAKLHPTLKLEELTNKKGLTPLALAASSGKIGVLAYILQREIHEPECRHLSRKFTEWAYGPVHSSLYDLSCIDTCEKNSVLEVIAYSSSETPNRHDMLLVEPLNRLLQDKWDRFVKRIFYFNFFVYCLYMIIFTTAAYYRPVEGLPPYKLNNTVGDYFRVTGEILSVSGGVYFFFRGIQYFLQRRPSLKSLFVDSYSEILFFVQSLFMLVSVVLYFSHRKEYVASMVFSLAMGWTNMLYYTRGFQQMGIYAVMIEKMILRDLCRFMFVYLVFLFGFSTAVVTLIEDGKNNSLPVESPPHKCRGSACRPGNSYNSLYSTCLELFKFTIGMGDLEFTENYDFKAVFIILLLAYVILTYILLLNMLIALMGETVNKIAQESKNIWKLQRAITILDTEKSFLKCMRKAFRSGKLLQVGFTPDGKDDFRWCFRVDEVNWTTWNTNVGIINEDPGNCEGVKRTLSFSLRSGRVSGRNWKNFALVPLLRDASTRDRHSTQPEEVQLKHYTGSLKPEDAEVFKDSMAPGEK
# TRPV1 [4] = biological target: T2, TRPV1; assay: Fluo-4 calcium imaging in TRPV1-transfected HEK293A cells, […]
# TRPA1 [5] = biological target: T1, TRPA1; conditions: HEK293-A, read-out: % reduction at 50 μM; remark: listed apart in the source
# TRPV1 [6] = biological target: T2, TRPV1; conditions: HEK293-A, read-out: % reduction at 50 μM
# TRPV1 [7] = biological target: T2, TRPV1; assay: Fluo-4 calcium imaging in transfected HEK293A cells, agonist at […]
# T1 sequence (Q8BLA8 whole entry): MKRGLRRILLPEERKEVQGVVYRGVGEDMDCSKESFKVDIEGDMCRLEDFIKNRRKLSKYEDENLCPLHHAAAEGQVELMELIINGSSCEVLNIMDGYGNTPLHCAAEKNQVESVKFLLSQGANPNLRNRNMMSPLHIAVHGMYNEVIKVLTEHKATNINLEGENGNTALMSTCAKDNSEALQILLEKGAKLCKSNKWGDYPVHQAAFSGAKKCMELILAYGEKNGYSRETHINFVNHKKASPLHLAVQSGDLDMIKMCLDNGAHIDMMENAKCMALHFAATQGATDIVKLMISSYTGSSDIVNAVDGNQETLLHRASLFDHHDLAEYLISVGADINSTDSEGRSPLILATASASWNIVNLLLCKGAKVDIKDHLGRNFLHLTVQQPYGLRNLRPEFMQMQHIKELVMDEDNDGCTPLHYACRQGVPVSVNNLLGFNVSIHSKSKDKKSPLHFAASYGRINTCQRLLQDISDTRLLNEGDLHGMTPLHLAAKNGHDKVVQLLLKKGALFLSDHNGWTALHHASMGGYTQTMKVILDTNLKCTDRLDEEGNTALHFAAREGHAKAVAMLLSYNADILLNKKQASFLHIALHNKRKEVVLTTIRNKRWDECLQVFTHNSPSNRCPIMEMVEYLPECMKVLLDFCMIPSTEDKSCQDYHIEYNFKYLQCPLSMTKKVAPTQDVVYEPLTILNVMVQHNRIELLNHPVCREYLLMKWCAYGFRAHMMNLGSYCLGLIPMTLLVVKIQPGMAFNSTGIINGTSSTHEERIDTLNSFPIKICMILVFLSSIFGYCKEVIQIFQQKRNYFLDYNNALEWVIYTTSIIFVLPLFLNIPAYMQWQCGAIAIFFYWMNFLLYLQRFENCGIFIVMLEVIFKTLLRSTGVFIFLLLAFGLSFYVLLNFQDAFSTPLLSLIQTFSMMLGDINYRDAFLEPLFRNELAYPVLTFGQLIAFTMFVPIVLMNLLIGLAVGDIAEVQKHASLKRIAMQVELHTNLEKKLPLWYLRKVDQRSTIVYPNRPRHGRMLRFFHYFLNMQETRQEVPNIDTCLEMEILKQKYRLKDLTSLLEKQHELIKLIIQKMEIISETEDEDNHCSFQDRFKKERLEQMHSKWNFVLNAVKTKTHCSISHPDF
# Sequence of TRPV4 (Q9ERZ8 whole entry): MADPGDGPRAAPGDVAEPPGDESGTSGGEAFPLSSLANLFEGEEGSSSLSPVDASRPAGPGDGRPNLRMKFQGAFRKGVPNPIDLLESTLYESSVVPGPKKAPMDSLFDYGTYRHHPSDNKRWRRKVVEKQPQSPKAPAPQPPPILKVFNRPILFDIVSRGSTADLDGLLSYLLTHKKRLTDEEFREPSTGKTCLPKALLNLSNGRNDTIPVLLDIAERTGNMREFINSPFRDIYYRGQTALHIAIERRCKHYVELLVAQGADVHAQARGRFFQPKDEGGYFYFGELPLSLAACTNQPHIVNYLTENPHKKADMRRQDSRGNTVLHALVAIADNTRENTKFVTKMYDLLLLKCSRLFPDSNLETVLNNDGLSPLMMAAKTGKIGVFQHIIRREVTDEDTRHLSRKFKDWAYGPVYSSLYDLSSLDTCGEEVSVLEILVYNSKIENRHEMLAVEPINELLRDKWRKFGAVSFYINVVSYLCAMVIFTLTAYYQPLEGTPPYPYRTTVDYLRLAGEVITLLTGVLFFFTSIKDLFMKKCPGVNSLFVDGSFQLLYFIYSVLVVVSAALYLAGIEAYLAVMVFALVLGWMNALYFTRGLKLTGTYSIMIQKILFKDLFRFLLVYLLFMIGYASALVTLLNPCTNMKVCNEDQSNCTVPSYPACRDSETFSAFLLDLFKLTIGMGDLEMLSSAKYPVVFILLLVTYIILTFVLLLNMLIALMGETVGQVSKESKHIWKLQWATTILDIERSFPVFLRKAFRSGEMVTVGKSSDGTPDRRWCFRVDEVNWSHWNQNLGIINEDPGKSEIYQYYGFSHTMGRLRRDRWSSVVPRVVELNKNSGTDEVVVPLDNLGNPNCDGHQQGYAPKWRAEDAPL
smiles,measurement,setting,value
CC(C)C[C@H](NC(=O)c1cc2ccccc2s1)C(=O)N1CCN(C(=O)[C@H](CO)NS(=O)(=O)c2ccc(Cl)cc2Cl)CC1 [GSK1016790A],"Fluo-4 calcium imaging in transfected HEK293A cells, agonist at 0.2 μM",TRPV4,"only channel-transfected, RFP^+ cells, but not untransfected, RFP^− cells, exhibited a calcium flux in response to the corresponding agonist"
C=CCN=C=S [allyl isothiocyanate],"Fluo-4 calcium imaging in transfected HEK293A cells, agonist at 10 μM",TRPA1 [1],"only channel-transfected, RFP^+ cells, but not untransfected, RFP^− cells, exhibited a calcium flux in response to the corresponding agonist"
"CCCCCCCC/C=C\CCCCCCCC(=O)N[C@@H](CCC(N)=O)C(=O)O [C18:1-Gln, N-oleoyl-glutamine]",inhibition at 50 µM,TRPA1 [2],94 ± 5%
same,IC50,TRPV1 [3],1300 nM
CCCCCCCC/C=C\CCCCCCCC(=O)N[C@H](CCC(N)=O)C(=O)O [C18:1-D-Gln],"Fluo-4 calcium imaging in TRPV1-transfected HEK293A cells, 50 μM",TRPV1 [4],the unnatural enantiomer C18:1-D-Gln fully antagonized capsaicin-induced TRPV1 calcium flux
CCCCC/C=C\C/C=C\C/C=C\C/C=C\CCCC(=O)N[C@@H](CO)C(=O)O [C20:4-Ser],inhibition at 50 µM,TRPA1 [5],68 ± 8%
CCCCCCCC/C=C\CCCCCCCC(=O)N[C@@H](CC(N)=O)C(=O)O [C18:1-Asn],inhibition at 50 µM,TRPV1 [6],49 ± 7%
COc1cc(CNC(=O)CCCC/C=C/C(C)C)ccc1O [capsaicin],"Fluo-4 calcium imaging in transfected HEK293A cells, agonist at 10 μM",TRPV1 [7],"capsaicin treatment induced a robust increase in the intracellular calcium concentration in the TRPV1-transfected, RFP^+ cells"
CCCCC/C=C\C/C=C\C/C=C\C/C=C\CCCC(=O)N[C@@H](Cc1ccccc1)C(=O)O [C20:4-Phe],inhibition at 50 µM,TRPA1 [5],87 ± 5%
